Read-outs that look alike come from different tables or passages of the source.
System: recombinant rabies virus 1088 strain expressing Gaussia Luciferase (GLuc) (1088/GLuc)
Assay type: cell-based

## CC(C)CNC(=O)[C@]12NC[C@@H]3C[C@H]1CN(Cc1cccc4ccccc14)[C@H]2[C@@H]3CC(C)C (relative stereo) [IB-762]
read-out: Anti-rabies activity
  IC50: < 5 µM

## CC(C)C[C@@H]1[C@@H]2[C@@H]3CN[C@@]1(C(=O)NCc1ccccc1)C[C@@H]3CN2CCc1ccccc1 (relative stereo) [IF-639]
read-out: Anti-rabies activity
  IC50: < 5 µM

## CC(C)C[C@@H]1[C@@H]2CN[C@@]3(C(=O)NCCO)[C@@H](C2)CN(Cc2ccc(F)cc2)[C@@H]13 (relative stereo) [IB-650]
read-out: Anti-rabies activity
  IC50: 10 to 30 µM

## CC(C)C[C@@H]1[C@@H]2CN[C@@]3(C(=O)NCc4ccc(O)cc4)[C@@H](C2)CN(CCc2ccccc2)[C@@H]13 (relative stereo) [IB-449]
read-out: Anti-rabies activity
  IC50: 10 to 30 µM

## NC(=O)CN1CC2CC3CNC2(C(=O)NCCc2ccccc2)C1C3Cc1ccccc1 (stereo not drawn) [IB-87]
read-out: Anti-rabies activity
  IC50: < 5 µM

## CC(C)CCN1C[C@@H]2C[C@H]3CN[C@]2(C(=O)NCCC(=O)O)[C@@H]1[C@@H]3Cc1cccc2ccccc12 (relative stereo) [IB-381]
read-out: Anti-rabies activity
  IC50: 10 to 30 µM

## O=C(O)CCC1C2CNC3(C(=O)NCc4cccc5ccccc45)C(C2)CN(CCO)C13 (stereo not drawn) [IB-425]
read-out: Anti-rabies activity
  IC50: 10 to 30 µM

## NC(=O)CN1C[C@H]2C[C@]3(C(=O)NCc4ccc(F)cc4)NC[C@H]2[C@H]1[C@H]3Cc1cccc2ccccc12 (relative stereo) [IF-97]
read-out: Anti-rabies activity
  IC50: 10 to 30 µM

## O=C(NCc1ccc(O)cc1)[C@@]12C[C@@H]3CN(CC4CCCCC4)[C@@H]([C@@H]3CN1)[C@H]2CCc1ccccc1 (relative stereo) [IF-475]
read-out: Anti-rabies activity
  IC50: 10 to 30 µM

## O=C(O)CCN1CC2CC3(C(=O)NCCO)NCC2C1C3Cc1cccc2ccccc12 (stereo not drawn) [IF-452]
read-out: Anti-rabies activity
  IC50: 10 to 30 µM

## Cc1ccc(CN2CC3CC4C=NC3(C(=O)NCc3ccccc3)C2C4CC(C)C)cc1 (stereo not drawn) [IIB-86]
read-out: Anti-rabies activity
  IC50: 5 to 10 µM

## CC(C)CCN1C[C@H]2C[C@]3(C(=O)NCC(C)C)NC[C@H]2[C@H]1[C@H]3Cc1cccc2ccccc12 (relative stereo) [IF-734]
read-out: Anti-rabies activity
  IC50: < 5 µM

## CC(C)C[C@@H]1[C@@H]2[C@@H]3CN[C@@]1(C(=O)NCCO)C[C@@H]3CN2CC1CCCCC1 (relative stereo) [IF-606]
read-out: Anti-rabies activity
  IC50: 10 to 30 µM

## CC(C)CC[C@@H]1[C@@H]2[C@@H]3CN[C@@]1(C(=O)NCc1ccc(O)cc1)C[C@@H]3CN2Cc1ccccc1 (relative stereo) [IF-493]
read-out: Anti-rabies activity
  IC50: < 5 µM

## COc1ccc(CN2CC3CC4CNC3(C(=O)NCc3ccccc3)C2C4CC(C)C)cc1 (stereo not drawn) [IB-866]
read-out: Anti-rabies activity
  IC50: 5 to 10 µM

## O=C(NCc1cccc2ccccc12)C12NCC3CC1CN(Cc1cccc4ccccc14)C2C3CCc1ccccc1 (stereo not drawn) [IB-804]
read-out: Anti-rabies activity
  IC50: < 5 µM

## CCCCCCNC(=O)[C@@]12C[C@@H]3CN(Cc4ccc(F)cc4)[C@@H]([C@@H]3CN1)[C@H]2CCCNC(=N)N (relative stereo) [IF-298]
read-out: Anti-rabies activity
  IC50: 10 to 30 µM

## CC(C)CN1C[C@@H]2C[C@H]3CN[C@]2(C(=O)NCCO)[C@@H]1[C@@H]3Cc1cccc2ccccc12 (relative stereo) [IB-687]
read-out: Anti-rabies activity
  IC50: 10 to 30 µM

## CC(C)CN1CC2CC3CNC2(C(=O)NCCC(N)=O)C1C3Cc1cccc2ccccc12 (stereo not drawn) [IB-737]
read-out: Anti-rabies activity
  IC50: 10 to 30 µM

## CC(C)CNC(=O)[C@]12NC[C@@H]3C[C@H]1CN(Cc1ccc(F)cc1)[C@H]2[C@@H]3CC(C)C (relative stereo) [IB-630]
read-out: Anti-rabies activity
  IC50: < 5 µM

## CC(C)CCN1C[C@@H]2C[C@H]3CN[C@]2(C(=O)NCCC(N)=O)[C@@H]1[C@@H]3CCc1ccccc1 (relative stereo) [IB-636]
read-out: Anti-rabies activity
  IC50: 10 to 30 µM

## Cc1cccc(CNC(=O)[C@@]23C[C@@H]4CN(CC(C)C)[C@@H]([C@@H]4CN2)[C@H]3Cc2ccccc2)c1 (relative stereo) [IF-15]
read-out: Anti-rabies activity
  IC50: 10 to 30 µM
read-out: IC50
  IC50: 17.1 µM

## CC(C)NC(=O)[C@@]12C[C@@H]3CN(Cc4ccc(F)cc4)[C@@H]([C@@H]3CN1)[C@H]2CCCNC(=N)N (relative stereo) [IF-274]
read-out: Anti-rabies activity
  IC50: 10 to 30 µM

## CC(C)CCNC(=O)[C@@]12C[C@@H]3CN(CC(C)C)[C@@H]([C@@H]3CN1)[C@H]2CCc1ccccc1 (relative stereo) [IF-673]
read-out: Anti-rabies activity
  IC50: < 5 µM

## CC(C)CNC(=O)[C@]12NC[C@@H]3C[C@H]1CN(CCC(=O)O)[C@H]2[C@@H]3Cc1cccc2ccccc12 (relative stereo) [IB-575]
read-out: Anti-rabies activity
  IC50: 10 to 30 µM

## CC(C)C[C@@H]1[C@@H]2CN[C@@]3(C(=O)NCCc4ccccc4)[C@@H](C2)CN(Cc2ccc(O)cc2)[C@@H]13 (relative stereo) [IB-540]
read-out: Anti-rabies activity
  IC50: 10 to 30 µM

## CCCCCCNC(=O)[C@@]12C[C@@H]3CN(Cc4ccccc4)[C@@H]([C@@H]3CN1)[C@H]2CC(C)C (relative stereo) [IF-560]
read-out: Anti-rabies activity
  IC50: < 5 µM

## N=C(N)NCCCN1C[C@@H]2C[C@H]3CN[C@]2(C(=O)NCc2ccccc2)[C@@H]1[C@@H]3Cc1cccc2ccccc12 (relative stereo) [IB-300]
read-out: Anti-rabies activity
  IC50: 10 to 30 µM

## N=C(N)NCCC[C@@H]1[C@@H]2[C@@H]3CN[C@@]1(C(=O)NCc1ccccc1)C[C@@H]3CN2Cc1cccc2ccccc12 (relative stereo) [IF-236]
read-out: Anti-rabies activity
  IC50: 10 to 30 µM

## O=C(NCc1ccccc1)[C@@]12C[C@@H]3CN(Cc4cccc5ccccc45)[C@@H]([C@@H]3CN1)[C@H]2Cc1ccc(O)cc1 (relative stereo) [IF-505]
read-out: Anti-rabies activity
  IC50: < 5 µM

## CC(C)CC[C@@H]1[C@@H]2CN[C@@]3(C(=O)NCCC(N)=O)[C@@H](C2)CN(Cc2ccc(F)cc2)[C@@H]13 (relative stereo) [IB-365]
read-out: Anti-rabies activity
  IC50: 10 to 30 µM

## NC(=O)CN1C[C@H]2C[C@]3(C(=O)NCc4cccc5ccccc45)NC[C@H]2[C@H]1[C@H]3Cc1ccccc1 (relative stereo) [IF-82]
read-out: Anti-rabies activity
  IC50: 10 to 30 µM

## CC(C)CCNC(=O)[C@@]12C[C@@H]3CN(CCc4ccccc4)[C@@H]([C@@H]3CN1)[C@H]2Cc1ccc(O)cc1 (relative stereo) [IF-707]
read-out: Anti-rabies activity
  IC50: < 5 µM

## CC(C)CCNC(=O)C12NCC3CC1CN(CC(C)C)C2C3Cc1ccccc1 (stereo not drawn) [IB-870]
read-out: Anti-rabies activity
  IC50: 10 to 30 µM

## NC(=O)CCNC(=O)[C@]12NC[C@@H]3C[C@H]1CN(CC1CCCCC1)[C@H]2[C@@H]3Cc1ccccc1 (relative stereo) [IB-637]
read-out: Anti-rabies activity
  IC50: < 5 µM

## CC(C)CNC(=O)[C@]12NC[C@@H]3C[C@H]1CN(CC(C)C)[C@H]2[C@@H]3CCCNC(=N)N (relative stereo) [IB-187]
read-out: Anti-rabies activity
  IC50: 10 to 30 µM

## CC(C)CCNC(=O)[C@]12NC[C@@H]3C[C@H]1CN(CC(N)=O)[C@H]2[C@@H]3CCc1ccccc1 (relative stereo) [IB-102]
read-out: Anti-rabies activity
  IC50: < 5 µM

## CC(C)CCN1C[C@H]2C[C@]3(C(=O)NCc4ccc(O)cc4)NC[C@H]2[C@H]1[C@H]3Cc1cccc2ccccc12 (relative stereo) [IF-465]
read-out: Anti-rabies activity
  IC50: 10 to 30 µM

## CC(C)CC[C@@H]1[C@@H]2[C@@H]3CN[C@@]1(C(=O)NCc1ccc(O)cc1)C[C@@H]3CN2CCc1ccccc1 (relative stereo) [IF-468]
read-out: Anti-rabies activity
  IC50: 10 to 30 µM

## CC(C)C[C@@H]1[C@@H]2CN[C@@]3(C(=O)NCCO)[C@@H](C2)CN(CCc2ccccc2)[C@@H]13 (relative stereo) [IB-641]
read-out: Anti-rabies activity
  IC50: 10 to 30 µM

## CC(C)C[C@@H]1[C@@H]2[C@@H]3CN[C@@]1(C(=O)NCc1ccc(Cl)c(Cl)c1)C[C@@H]3CN2Cc1ccccc1 (relative stereo) [IF-20]
read-out: Anti-rabies activity
  IC50: 10 to 30 µM
read-out: IC50
  IC50: 11.6 µM

## N=C(N)NCCCC1C2CNC3(C(=O)NCc4ccc(F)cc4)C(C2)CN(Cc2ccc(O)cc2)C13 (stereo not drawn) [IB-207]
read-out: Anti-rabies activity
  IC50: 10 to 30 µM

## NC(=O)CCNC(=O)C12NCC3CC1CN(Cc1ccccc1)C2C3Cc1cccc2ccccc12 (stereo not drawn) [IB-813]
read-out: Anti-rabies activity
  IC50: < 5 µM

## CC(C)C[C@@H]1[C@@H]2[C@@H]3CN[C@@]1(C(=O)NCc1ccc(O)cc1)C[C@@H]3CN2CC1CCCCC1 (relative stereo) [IF-478]
read-out: Anti-rabies activity
  IC50: < 5 µM

## CC(C)CNC(=O)[C@]12NC[C@@H]3C[C@H]1CN(CCO)[C@H]2[C@@H]3Cc1cccc2ccccc12 (relative stereo) [IB-621]
read-out: Anti-rabies activity
  IC50: < 5 µM

## O=C(NCCO)[C@]12NC[C@@H]3C[C@H]1CN(Cc1ccc(F)cc1)[C@H]2[C@@H]3Cc1ccccc1 (relative stereo) [IB-649]
read-out: Anti-rabies activity
  IC50: 10 to 30 µM

## CC(C)CNC(=O)[C@@]12C[C@@H]3CN(CCc4ccccc4)[C@@H]([C@@H]3CN1)[C@H]2Cc1ccccc1 (relative stereo) [IF-641]
read-out: Anti-rabies activity
  IC50: < 5 µM

## N=C(N)NCCCN1CC2CC3(C(=O)NCCc4ccccc4)NCC2C1C3Cc1ccc(O)cc1 (stereo not drawn) [IF-359]
read-out: Anti-rabies activity
  IC50: 10 to 30 µM

## CC(C)CN1C[C@H]2C[C@]3(C(=O)NCc4ccccc4)NC[C@H]2[C@H]1[C@H]3CCc1ccccc1 (relative stereo) [IF-11]
read-out: Anti-rabies activity
  IC50: 10 to 30 µM
read-out: IC50
  IC50: 17.5 µM

## CC(C)CCN1C[C@@H]2C[C@H]3CN[C@]2(C(=O)NCc2ccc(O)cc2)[C@@H]1[C@@H]3Cc1ccccc1 (relative stereo) [IB-577]
read-out: Anti-rabies activity
  IC50: 10 to 30 µM

## CC(C)CCC1C2C3CNC1(C(=O)NCc1cccc4ccccc14)CC3CN2CCC(=O)O (stereo not drawn) [IF-422]
read-out: Anti-rabies activity
  IC50: 10 to 30 µM

## CC(C)CNC(=O)[C@@]12C[C@@H]3CN(CC4CCCCC4)[C@@H]([C@@H]3CN1)[C@H]2CC(C)C (relative stereo) [IF-742]
read-out: Anti-rabies activity
  IC50: 10 to 30 µM

## CC(C)C[C@@H]1[C@@H]2CN[C@@]3(C(=O)NCc4ccccc4)[C@@H](C2)CN(Cc2ccc(F)cc2)[C@@H]13 (relative stereo) [IB-773]
read-out: Anti-rabies activity
  IC50: < 5 µM

## CC(C)CNC(=O)C12CC3CN(Cc4cccc5ccccc45)C(C3CN1)C2CC(N)=O (stereo not drawn) [IF-226]
read-out: Anti-rabies activity
  IC50: 10 to 30 µM

## NC(=O)CCNC(=O)C12NCC3CC1CN(Cc1ccc(F)cc1)C2C3Cc1ccccc1 (stereo not drawn) [IB-712]
read-out: Anti-rabies activity
  IC50: < 5 µM

## O=C(O)CCNC(=O)C12CC3CN(Cc4ccc(F)cc4)C(C3CN1)C2Cc1cccc2ccccc12 (stereo not drawn) [IF-417]
read-out: Anti-rabies activity
  IC50: 10 to 30 µM

## CC(C)CCNC(=O)[C@@]12C[C@@H]3CN(CC(C)C)[C@@H]([C@@H]3CN1)[C@H]2Cc1cccc2ccccc12 (relative stereo) [IF-674]
read-out: Anti-rabies activity
  IC50: 10 to 30 µM

## O=C(NCCO)[C@]12NC[C@@H]3C[C@H]1CN(Cc1ccccc1)[C@H]2[C@@H]3Cc1cccc2ccccc12 (relative stereo) [IB-602]
read-out: Anti-rabies activity
  IC50: 10 to 30 µM

## NC(=O)CN1CC2CC3(C(=O)NCCc4ccccc4)NCC2C1C3Cc1cccc2ccccc12 (stereo not drawn) [IF-90]
read-out: Anti-rabies activity
  IC50: 10 to 30 µM

## CC(C)CC1C2C3C=NC1(C(=O)NCc1ccccc1)CC3CN2Cc1ccc(Cl)cc1 (stereo not drawn) [IIF-83]
read-out: Anti-rabies activity
  IC50: < 5 µM

## CC(C)CNC(=O)[C@@]12C[C@@H]3CN(Cc4ccc(F)cc4)[C@@H]([C@@H]3CN1)[C@H]2CC(C)C (relative stereo) [IF-654]
read-out: Anti-rabies activity
  IC50: < 5 µM

## CC(C)CC[C@@H]1[C@@H]2CN[C@@]3(C(=O)NCCCNC(=N)N)[C@@H](C2)CN(Cc2cccc4ccccc24)[C@@H]13 (relative stereo) [IB-353]
read-out: Anti-rabies activity
  IC50: < 5 µM

## CC(C)C[C@@H]1[C@@H]2[C@@H]3CN[C@@]1(C(=O)NCc1ccccc1)C[C@@H]3CN2CC1CCCCC1 (relative stereo) [IF-644]
read-out: Anti-rabies activity
  IC50: < 5 µM
